We go through 13 molecules from US5763430A, “Method of treating a viral infection by administering a steroid compound” (priority 1995, dated 1998).

By MIC is commonly meant the lowest concentration that inhibits growth of the organism.

Assay [1] concerns E. coli. Description: antibiotic activity (MIC). In kind it is cell-based. Particulars: Escherichia coli; E. coli; read-out: MIC. An excerpt:
(§1) Thus, it is possible to achieve an antimicrobial steroid with or without squalamine-like pharmacological activity.

Assay [2] has as its system C. albicans. Briefly: antibiotic activity (MIC). Type of assay: cell-based. Particulars: Candida albicans; C. albicans; read-out: MIC.
From the text: as §1

For assay [3], the system named is S. aureus. Description: antibiotic activity (MIC). In kind it is cell-based. Particulars: Staphylococcus aureus; S. aureus; read-out: MIC.
From the text: as §1

The subject of assay [4] is P. aerug. Description: antibiotic activity (MIC). To be noted: P. aerug; read-out: MIC. Type of assay: cell-based.
From the text: as §1

Assay [5] concerns stage 59-60 Xenopus tadpole. Description: Xenopus tadpole assay. Particulars: in vivo.
The subject of assay [6] is human microvascular cells. Description: inhibition of endothelial cell cord formation in vitro. For effect on endothelial cord formation: key: +: Inhibition of angiogenesis; -: No inhibition of angiogenesis; Toxic; *: cell rounding @ 10 µg/ml. In kind it is cell-based. An excerpt: Endothelial cells have the capacity in vitro to form tubular aggregates resembling capillaries in various early stages of formation. This conversion occurs under relatively specific conditions, in which essential growth factors along with an effective substratum are provided. It has been shown that both the interaction of growth factors with the endothelial cell and its attachment to a substratum activate the NHE. The activation of this exchanger is believed to be required for subsequent morphologic transformation of the endothelial cell into a multicellular tubular structure.
To assess the effect of compounds on the cord-like structures formed by human microvascular cells when plated in the presence of VEGF (Vascular Endothelial Growth Factor) and basic fibroblast growth factor on a collagen matrix, a standard cord formation assay was used.

Each structure is given as a SMILES string. Converted amounts (≈) assume the structure as drawn. Where only a bound is given, the exact number is not on record here.

On to `COC(=O)CC[C@@H](C)[C@H]1CC[C@H]2[C@@H]3[C@H](O)C[C@H]4C[C@@H](NCCCNCCCCNCCCN)CC[C@]4(C)[C@H]3CC[C@]12C` [Compound 396], for which the MIC is 64 µg/mL (≈ 108 µM) in assay [1], 16 µg/mL (≈ 27.1 µM) in assay [2], 2 to 4 µg/mL (≈ 3.38 to 6.77 µM) in assay [3] and 128 µg/mL (≈ 217 µM) in assay [4].

On to `COC(=O)CC[C@@H](C)[C@H]1CC[C@H]2[C@@H]3CC[C@@H]4C[C@H](NCCN)CC[C@]4(C)[C@H]3C[C@H](O)[C@]12C` [Compound 416], for which, in assay [5], the “similarity of pharmacologic activity in tadpole assay” value is on record as “functionally similar to compound 1437”. The MIC was 8 µg/mL (≈ 17.8 µM) in assay [1], 32 µg/mL (≈ 71.3 µM) in assay [2], 8 µg/mL (≈ 17.8 µM) in assay [3] and 16 to 32 µg/mL (≈ 35.7 to 71.3 µM) in assay [4].

Turning to `CC(C)CCC[C@@H](C)[C@H]1CC[C@H]2[C@@H]3CC[C@H]4C[C@H](NCCCNCCCCNCCCN)CC[C@]4(C)[C@H]3CC[C@]12C` [Compound 354], the minimum inhibitory concentration (MIC) in assay [1] is 64 to 128 µg/mL (≈ 112 to 223 µM); in assay [2] it was 16 to 32 µg/mL (≈ 27.9 to 55.8 µM); in assay [3], 8 µg/mL (≈ 14 µM); in assay [4] it was 64 µg/mL (≈ 112 µM).

On to `CC(C)C(O)CC[C@@H](C)[C@H]1CC[C@H]2[C@@H]3[C@H](O)C[C@H]4C[C@@H](NCCCNCCCCN)CC[C@]4(C)[C@H]3CC[C@]12C` (stereo partly drawn) [MSI-1232], for which the MIC is 32 µg/mL (≈ 58.4 µM) in assay [1], 64 µg/mL (≈ 117 µM) in assay [2], 4 to 16 µg/mL (≈ 7.3 to 29.2 µM) in assay [3] and 128 µg/mL (≈ 234 µM) in assay [4].

`COC(=O)CC[C@@H](C)[C@H]1CC[C@H]2[C@@H]3[C@H](O)C[C@H]4CC(NCCCNCCCCNCCCN)CC[C@]4(C)[C@H]3CC[C@]12C` (stereo partly drawn) [Compound 395]: the MIC came to 32 µg/mL (≈ 54.2 µM) in assay [1], 64 µg/mL (≈ 108 µM) in assay [2], 4 µg/mL (≈ 6.77 µM) in assay [3] and 64 µg/mL (≈ 108 µM) in assay [4].

As to `C[C@H](CCC(=O)O)[C@H]1CC[C@H]2[C@@H]3CC[C@@H]4C[C@H](NCCN)CC[C@]4(C)[C@H]3C[C@H](O)[C@]12C` [Compound 417], the MIC is 64 µg/mL (≈ 147 µM) in assay [1], 32 µg/mL (≈ 73.6 µM) in assay [2], 16 to 32 µg/mL (≈ 36.8 to 73.6 µM) in assay [3] and 128 µg/mL (≈ 294 µM) in assay [4].

Regarding `COC(=O)CC[C@@H](C)[C@H]1CC[C@H]2[C@@H]3[C@H](O)C[C@@H]4C[C@@H](NCCCNCCCCNCCCN)CC[C@]4(C)[C@H]3CC[C@]12C` [Compound 411], the MIC stood at 64 µg/mL (≈ 108 µM) in assay [1], 2 µg/mL (≈ 3.38 µM) in assay [2], 8 µg/mL (≈ 13.5 µM) in assay [3] and 64 µg/mL (≈ 108 µM) in assay [4]. In addition, the “effect on endothelial cord formation” value in assay [6] (0.1 μg/ml) is reported as “-”; in assay [6] (1.0 μg/ml) it was “-”; in assay [6] (10.0 μg/ml), “+”. The minimal effective concentration in assay [6] (Homo sapiens, Endothelial cell, Table II, read-out: Minimum Effective Concentration, Cord Formation) amounted to 10 µg/mL.

As to `CC(C)CCC[C@@H](C)[C@H]1CC[C@H]2[C@@H]3CC[C@H]4C[C@H](NCCCNCCCCN)CC[C@]4(C)[C@H]3CC[C@]12C` [Compound 304], the MIC in assay [1] was 128 µg/mL (≈ 248 µM); in assay [2], 128 µg/mL (≈ 248 µM); in assay [3], 2 to 4 µg/mL (≈ 3.88 to 7.75 µM); in assay [4], 128 µg/mL (≈ 248 µM).

Turning to `CC(C)C(CC[C@@H](C)[C@H]1CC[C@H]2[C@@H]3[C@H](O)C[C@H]4C[C@H](NCCCNCCCCN)CC[C@]4(C)[C@H]3CC[C@]12C)OS(=O)(=O)O` (stereo partly drawn) [Compound 388, 3-Episqualamine], the MIC in assay [1] is 4 to 8 µg/mL (≈ 6.37 to 12.7 µM); in assay [2] it was 16 µg/mL (≈ 25.5 µM); in assay [3], 2 to 4 µg/mL (≈ 3.18 to 6.37 µM); in assay [4], 16 µg/mL (≈ 25.5 µM).

Turning to `C[C@H](CCC(=O)O)[C@H]1CC[C@H]2[C@@H]3CC[C@H]4C[C@H](NCCCNCCCCN)CC[C@]4(C)[C@H]3CC[C@]12C` [Compound 318], the MIC in assay [1] was 32 µg/mL (≈ 63.5 µM); in assay [2] it was > 256 µg/mL; in assay [3], 128 µg/mL (≈ 254 µM); in assay [4] it was 64 µg/mL (≈ 127 µM).

As to `C[C@H](CCC(=O)O)[C@H]1CC[C@H]2[C@@H]3[C@H](O)C[C@H]4C[C@@H](NCCCNCCCCN)CC[C@]4(C)[C@H]3CC[C@]12C` [Compound 381], the MIC is 64 µg/mL (≈ 123 µM) in assay [1], 128 µg/mL (≈ 246 µM) in assay [2], 32 µg/mL (≈ 61.6 µM) in assay [3] and 32 µg/mL (≈ 61.6 µM) in assay [4].

For the molecule `CC(C)CCC[C@@H](C)[C@H]1CC[C@H]2[C@@H]3CC[C@H]4C[C@@H](NCCCNCCCCN)CC[C@]4(C)[C@H]3CC[C@]12C` [Compound 303], the MIC was 128 to 256 µg/mL (≈ 248 to 496 µM) in assay [1], 256 µg/mL (≈ 496 µM) in assay [2], 8 µg/mL (≈ 15.5 µM) in assay [3] and 128 µg/mL (≈ 248 µM) in assay [4].

Take `COC(=O)CC[C@@H](C)[C@H]1CC[C@H]2[C@@H]3CC[C@@H]4C[C@H](NCCCNCCCCNCCCN)CC[C@]4(C)[C@H]3C[C@H](O)[C@]12C` [Compound 448]: the MIC in assay [1] is 16 µg/mL (≈ 27.1 µM); in assay [2], 8 µg/mL (≈ 13.5 µM); in assay [3], 2 µg/mL (≈ 3.38 µM); in assay [4] it was 8 µg/mL (≈ 13.5 µM).
